PubChem BioAssay (NCI)
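96-well plates; 48 h exposure; 5 concentrations. Endpoints by linear interpolation between flanking doses. Not reached: highest tested concentration assigned. TGI denotes the concentration required for complete inhibition of growth.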

What was measured:
Assay in all cases: inhibition of tumour cell growth, NCI panel, 48 h
[1] = system: CCRF-CEM leukemia
[2] = system: NCI-H23 lung
[3] = system: HCT-116 colon
[4] = system: HS 578T breast
[5] = system: SR leukemia
[6] = system: ACHN renal
[7] = system: MOLT-4 leukemia
[8] = system: A498 renal
[9] = system: SN12C renal
[10] = system: MDA-N
[11] = system: SW-620 colon
[12] = system: SF-268 CNS
[13] = system: PC-3 prostate
[14] = system: UACC-62 melanoma
[15] = system: SK-MEL-2 melanoma
[16] = system: LOX IMVI melanoma
[17] = system: U251 CNS
[18] = system: HL-60(TB) leukemia
[19] = system: SK-MEL-28 melanoma
[20] = system: RPMI-8226 leukemia
[21] = system: MDA-MB-231 breast
[22] = system: NCI-H522 lung
[23] = system: K-562 leukemia
[24] = system: HCC-2998 colon
[25] = system: MCF7 breast
[26] = system: NCI-H460 lung
[27] = system: SK-MEL-5 melanoma
[28] = system: SF-539 CNS
[29] = system: TK-10 renal
[30] = system: BT-549 breast
[31] = system: NCI/ADR-RES ovarian
[32] = system: HCT-15 colon
[33] = system: OVCAR-8 ovarian
[34] = system: MALME-3M melanoma
[35] = system: HOP-92 NSCLC
[36] = system: 786-0 renal
[37] = system: IGROV1 ovarian
[38] = system: NCI-H226 lung
[39] = system: UACC-257 melanoma
[40] = system: COLO 205 colon
[41] = system: KM12 colon
[42] = system: SNB-75 CNS
[43] = system: CAKI-1 renal
[44] = system: OVCAR-5 ovarian
[45] = system: HT29 colon
[46] = system: EKVX NSCLC
[47] = system: DU-145 prostate
[48] = system: MDA-MB-435
[49] = system: UO-31 renal
[50] = system: T-47D breast
[51] = system: A549 NSCLC
[52] = system: RXF 393 renal
[53] = system: SK-OV-3 ovarian
[54] = system: SF-295 CNS
[55] = system: OVCAR-3 ovarian
[56] = system: M14 melanoma
[57] = system: HOP-62 NSCLC

Nc1c2c(nc3ccccc13)CCCCCC2
TGI [1]: 52.4 µM | TGI [2]: > 100 µM | TGI [3]: 64.1 µM | TGI [4]: > 100 µM | TGI [5]: 38 µM | TGI [6]: 86.3 µM | TGI [7]: 85 µM | TGI [8]: 74 µM | TGI [9]: > 100 µM | TGI [10]: 30.4 µM | TGI [11]: 50.1 µM | TGI [12]: > 100 µM | TGI [13]: > 100 µM | TGI [14]: 33.7 µM | TGI [15]: 29.2 µM | TGI [16]: 31.8 µM | TGI [17]: 80.2 µM | TGI [18]: 31.6 µM | TGI [19]: 30 µM | TGI [20]: 43.8 µM | TGI [21]: 42.5 µM | TGI [22]: 56.3 µM | TGI [23]: 69 µM | TGI [24]: 27.4 µM | TGI [25]: > 100 µM | TGI [26]: 38.9 µM | TGI [27]: 31.3 µM | TGI [28]: 32.3 µM | TGI [29]: 35.1 µM | TGI [30]: > 100 µM | TGI [31]: > 100 µM | TGI [32]: > 100 µM | TGI [33]: > 100 µM | TGI [34]: 32.6 µM | TGI [35]: 32.1 µM | TGI [36]: 30 µM | TGI [37]: > 100 µM | TGI [38]: > 100 µM | TGI [39]: 31.1 µM | TGI [40]: 30.6 µM

O=[N+]([O-])/C=C1\COCc2cc3c(cc21)OCO3
TGI [1]: 39.1 µM | TGI [2]: 27.1 µM | TGI [3]: 39.6 µM | TGI [4]: 80.7 µM | TGI [41]: 28.4 µM | TGI [5]: 61.4 µM | TGI [6]: 43.3 µM | TGI [7]: > 100 µM | TGI [8]: 42 µM | TGI [9]: 47.2 µM | TGI [10]: 40.4 µM | TGI [11]: 47.4 µM | TGI [12]: 67 µM | TGI [13]: 25.6 µM | TGI [42]: 38.9 µM | TGI [43]: 25.7 µM | TGI [14]: 51.8 µM | TGI [16]: 71.5 µM | TGI [17]: 36.5 µM | TGI [44]: 43.4 µM | TGI [18]: 57.4 µM | TGI [19]: 34.2 µM | TGI [45]: 67.2 µM | TGI [46]: 74.7 µM | TGI [47]: 37.4 µM | TGI [20]: 68.5 µM | TGI [48]: 28.2 µM | TGI [21]: 29.8 µM | TGI [22]: 40.2 µM | TGI [23]: > 100 µM | TGI [49]: 34.7 µM | TGI [24]: 32.9 µM | TGI [25]: 35.8 µM | TGI [26]: 93.8 µM | TGI [27]: 39.9 µM | TGI [28]: 52.4 µM | TGI [29]: 50 µM | TGI [31]: 43.4 µM | TGI [32]: 36.2 µM | TGI [50]: 46 µM | TGI [51]: 39.8 µM | TGI [52]: 38.9 µM | TGI [33]: 84.4 µM | TGI [35]: > 100 µM | TGI [53]: > 100 µM | TGI [54]: > 100 µM | TGI [36]: 44.3 µM | TGI [37]: > 100 µM | TGI [38]: 57.6 µM | TGI [39]: 40.9 µM | TGI [40]: 42 µM | TGI [55]: 35.9 µM | TGI [56]: 26.9 µM | TGI [57]: > 100 µM
